Source: the NIST ThermoML archive (doi:10.1021/je700288s)
“And” between values parts separate entries of the source, which are not always exact repeats. Identical values can stand only once. Numbers after ± are expanded uncertainties.

Experiments:
[1] = mn = molality of the nth substance listed, in mol/kg; details: 101 kPa, Liquid; for speed of sound: Sing-around technique in a fixed-path interferometer; for mass density: Vibrating tube method
[2] = 283.15 K; 101 kPa; Liquid; Vibrating tube method

C[C@H](N)C(=O)O [(S)-2-aminopropanoic acid] + O
[1]
Details | mass density, m1 = 0.23 | mass density, m1 = 0.47 | mass density, m1 = 0.72 | speed of sound, m1 = 0.23 | speed of sound, m1 = 0.47 | speed of sound, m1 = 0.72
283.15 K | 1006.29 ± 0.12 kg/m3 and 1006.34 ± 0.12 kg/m3 | 1012.74 ± 0.13 kg/m3 and 1012.69 ± 0.13 kg/m3 | 1018.71 ± 0.14 kg/m3 and 1019.09 ± 0.14 kg/m3 | 1464.4 ± 1.1 m/s and 1464.1 ± 1.1 m/s | 1480.4 ± 1.1 m/s and 1480.5 ± 1.1 m/s | 1496.7 ± 1.2 m/s and 1495.8 ± 1.2 m/s
288.15 K | 1005.65 ± 0.12 kg/m3 and 1005.61 ± 0.12 kg/m3 | 1011.96 ± 0.13 kg/m3 and 1011.92 ± 0.13 kg/m3 | 1017.87 ± 0.14 kg/m3 and 1018.24 ± 0.14 kg/m3 | 1482 ± 1.1 m/s and 1481.8 ± 1.1 m/s | 1497.6 ± 1.1 m/s and 1497.4 ± 1.1 m/s | 1512.2 ± 1.2 m/s and 1513 ± 1.2 m/s
293.15 K | 1004.68 ± 0.12 kg/m3 and 1004.64 ± 0.12 kg/m3 | 1010.93 ± 0.13 kg/m3 and 1010.89 ± 0.13 kg/m3 | 1016.77 ± 0.14 kg/m3 and 1017.14 ± 0.14 kg/m3 | 1497.7 ± 1.1 m/s and 1497.4 ± 1.1 m/s | 1512.4 ± 1.1 m/s and 1512.6 ± 1.1 m/s | 1527.5 ± 1.2 m/s and 1526.7 ± 1.2 m/s
298.15 K | 1003.46 ± 0.12 kg/m3 and 1003.43 ± 0.12 kg/m3 | 1009.62 ± 0.13 kg/m3 and 1009.66 ± 0.13 kg/m3 | 1015.82 ± 0.14 kg/m3 and 1015.45 ± 0.14 kg/m3 | 1511.4 ± 1.1 m/s and 1511.1 ± 1.1 m/s | 1525.6 ± 1.1 m/s and 1525.8 ± 1.1 m/s | 1540.1 ± 1.2 m/s and 1539.4 ± 1.2 m/s
303.15 K | 1001.98 ± 0.12 kg/m3 and 1002.01 ± 0.12 kg/m3 | 1008.13 ± 0.13 kg/m3 and 1008.17 ± 0.13 kg/m3 | 1014.29 ± 0.14 kg/m3 and 1013.92 ± 0.14 kg/m3 | 1523.3 ± 1.1 m/s and 1523.1 ± 1.1 m/s | 1537.1 ± 1.1 m/s and 1537.2 ± 1.1 m/s | 1551 ± 1.2 m/s and 1550.3 ± 1.2 m/s
308.15 K | 1000.33 ± 0.12 kg/m3 and 1000.36 ± 0.12 kg/m3 | 1006.44 ± 0.13 kg/m3 and 1006.48 ± 0.13 kg/m3 | 1012.57 ± 0.14 kg/m3 and 1012.19 ± 0.14 kg/m3 | 1533.6 ± 1.1 m/s and 1533.3 ± 1.1 m/s | 1546.9 ± 1.1 m/s and 1547 ± 1.1 m/s | 1560.4 ± 1.2 m/s and 1559.7 ± 1.2 m/s

O [water]
Details | mass density [kg/m3]
[2] | 999.699 ± 0.1
